The source of these data is patent US20090281099A1, “SUBSTITUTED PYRAZINONE DERIVATIVES FOR USE AS A MEDICINE” (priority 2006, published 2009).

In one experiment the target is T1, hα2A receptor (Homo sapiens, UniProt P08913).
T1 construct: expressed in transfected cells
T1 sequence (P08913 1-465): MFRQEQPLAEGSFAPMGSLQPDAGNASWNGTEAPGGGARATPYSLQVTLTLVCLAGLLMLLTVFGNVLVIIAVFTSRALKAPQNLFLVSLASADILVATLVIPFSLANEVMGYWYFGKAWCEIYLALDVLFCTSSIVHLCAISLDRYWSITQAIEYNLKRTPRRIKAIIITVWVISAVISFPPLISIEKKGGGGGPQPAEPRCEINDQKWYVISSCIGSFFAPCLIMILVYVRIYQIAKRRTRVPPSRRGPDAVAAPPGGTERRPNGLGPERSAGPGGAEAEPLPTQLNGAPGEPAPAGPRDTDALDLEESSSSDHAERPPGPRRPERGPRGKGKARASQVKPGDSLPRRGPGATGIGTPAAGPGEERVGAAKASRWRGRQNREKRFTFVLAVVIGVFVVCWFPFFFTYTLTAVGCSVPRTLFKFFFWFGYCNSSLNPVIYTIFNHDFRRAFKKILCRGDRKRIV
In words: Radioligand binding experiment for hα2A receptor ([3H]-raulwolscine, CHO cell membranes). Particulars: [3H]raulwolscine 1 nM, membranes of CHO cells transfected with human α2A receptor; read-out: h-α2A pIC50 (converted).

The target of another experiment is T2, hα2C receptor (Homo sapiens, UniProt P18825).
T2 construct: expressed in transfected cells
T2 sequence (P18825 1-462): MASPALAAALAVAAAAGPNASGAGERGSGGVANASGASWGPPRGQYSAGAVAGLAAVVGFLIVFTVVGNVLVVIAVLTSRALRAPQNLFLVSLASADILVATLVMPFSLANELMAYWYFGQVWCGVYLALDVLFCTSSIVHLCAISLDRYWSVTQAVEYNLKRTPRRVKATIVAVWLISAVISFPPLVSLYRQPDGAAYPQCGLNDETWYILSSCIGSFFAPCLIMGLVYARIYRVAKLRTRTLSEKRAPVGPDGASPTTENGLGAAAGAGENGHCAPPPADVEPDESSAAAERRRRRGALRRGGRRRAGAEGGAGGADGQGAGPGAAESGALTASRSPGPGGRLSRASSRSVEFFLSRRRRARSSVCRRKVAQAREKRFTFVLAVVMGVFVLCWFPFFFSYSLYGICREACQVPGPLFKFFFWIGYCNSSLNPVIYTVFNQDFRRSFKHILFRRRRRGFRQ
In words: Radioligand binding experiment for α2C-adrenoceptor ([3H]-raulwolscine, CHO cell membranes). As to conditions: [3H]raulwolscine 1 nM, membranes of CHO cells transfected with human α2C receptor; read-out: h-α2C pIC50 (converted).

The target in a further experiment is T3, 5HT-Transporter (Homo sapiens, UniProt P31645).
T3 construct: Human platelet membranes (Oceanix Biosciences Corporation, Hanover, Md., USA) were thawed; tissue Oceanix Biosciences Corporation; host or cells: human platelet membranes
T3 sequence (P31645 whole entry): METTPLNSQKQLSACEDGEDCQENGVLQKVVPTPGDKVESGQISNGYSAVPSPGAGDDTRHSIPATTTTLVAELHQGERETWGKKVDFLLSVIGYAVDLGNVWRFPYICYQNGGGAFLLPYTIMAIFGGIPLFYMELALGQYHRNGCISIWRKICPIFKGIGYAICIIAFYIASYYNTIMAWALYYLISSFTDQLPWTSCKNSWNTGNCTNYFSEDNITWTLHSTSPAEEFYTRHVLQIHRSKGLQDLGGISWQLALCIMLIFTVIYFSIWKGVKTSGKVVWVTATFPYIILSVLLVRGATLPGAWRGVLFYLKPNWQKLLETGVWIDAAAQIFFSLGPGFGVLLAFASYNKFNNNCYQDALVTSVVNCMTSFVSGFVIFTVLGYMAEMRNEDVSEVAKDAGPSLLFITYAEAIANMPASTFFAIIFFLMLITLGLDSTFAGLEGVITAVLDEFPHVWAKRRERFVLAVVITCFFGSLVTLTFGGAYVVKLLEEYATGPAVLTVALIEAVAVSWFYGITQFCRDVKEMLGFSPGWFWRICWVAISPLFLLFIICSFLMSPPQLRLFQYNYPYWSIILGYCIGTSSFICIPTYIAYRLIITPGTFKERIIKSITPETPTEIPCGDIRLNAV
In words: Binding experiment for the 5HT-transporter ([3H]paroxetine, human platelet membranes). Particulars: [3H]paroxetine 0.5 nM, read-out: h-5HTT pIC50 (converted).

`O=c1c(NC2CCN(CCOc3ccccc3)CC2)nccn1-c1ccc(N2CCC(N3CCCC3)CC2)cc1` [Compound 2-10]: the figures for the IC50 at hα2A receptor, on hα2C receptor and at 5HT-Transporter were 126 nM, 7.94 nM and 3160 nM, respectively.
Consider `CCOC(=O)CCCCn1ccnc(NC2CCN(CCOc3ccccc3)CC2)c1=O` [Compound 3-3], for which the figures for the IC50 at hα2A receptor, at hα2C receptor and on 5HT-Transporter were 251 nM, 15.8 nM and 3160 nM, respectively.
`COC(=O)Cn1ccnc(NC2CCN(CCOc3ccccc3)CC2)c1=O` [Compound 3-2]: the IC50 on hα2A receptor was 158 nM; on hα2C receptor it was 25.1 nM; on 5HT-Transporter, above 10000 nM.
As to `O=C(Cn1ccnc(NC2CCN(CCOc3ccccc3)CC2)c1=O)N(CCN1CCCC1)Cc1ccccc1` [Compound 1-23], the figures for the IC50 on hα2A receptor and at hα2C receptor were 31.6 nM and 0.501 nM, respectively.
Regarding `O=c1c(N2CCN(CCOc3ccc(F)cc3)CC2)nccn1CCCc1ccccc1` [Compound 11-2], the IC50 on hα2A receptor is 251 nM; at hα2C receptor, 631 nM; at 5HT-Transporter, 2000 nM.
For `O=C(Cn1ccnc(NC2CCN(CCOc3ccccc3)CC2)c1=O)NCc1ccccc1` [Compound 1-11], the IC50 on hα2A receptor is 251 nM; on hα2C receptor, 6.31 nM; on 5HT-Transporter, 7940 nM.
For the compound `O=c1c(NC2CCN(CCOc3ccccc3)CC2)nccn1CCCn1c(=O)[nH]c2ccccc21` [Compound 2-17], the figures for the IC50 at hα2A receptor, on hα2C receptor and at 5HT-Transporter were 126 nM, 1.26 nM and 3160 nM, respectively.
As to `CN(CCc1ccccc1)C(=O)Cn1ccnc(NC2CCN(CCOc3ccccc3)CC2)c1=O` [Compound 1-16], the results for the IC50 at hα2A receptor, at hα2C receptor and at 5HT-Transporter were 200 nM, 7.94 nM and above 10000 nM, respectively.
On to `O=c1[nH]ccnc1NC1CCN(CCOc2ccccc2)CC1` [Compound 5-1], for which the IC50 is 398 nM at hα2A receptor, 39.8 nM at hα2C receptor and above 10000 nM at 5HT-Transporter.
With `O=c1c(NC2CCN(CCOc3ccccc3)CC2)nccn1CC1CCCCO1` (stereo not shown) [Compound 6-1], the IC50 at hα2A receptor was 501 nM; at hα2C receptor, 39.8 nM; at 5HT-Transporter, above 10000 nM.
For `O=c1c(NC2CCN(CCOc3ccccc3)CC2)nccn1Cc1ccc(Br)cc1` [Compound 4-3], the IC50 on hα2A receptor is 100 nM; at hα2C receptor it was 20 nM; on 5HT-Transporter, 794 nM.
The matching figures for `COCCn1ccnc(NC2CCN(CCOc3ccccc3)CC2)c1=O` [Compound 3-1]: 631 nM, 50.1 nM and above 10000 nM.
Consider `NCc1ccc(Cn2ccnc(N3CCN(CCOc4ccc(F)cc4)CC3)c2=O)cc1` [Compound 7-1], for which the IC50 at hα2A receptor is 158 nM; on hα2C receptor, 63.1 nM; at 5HT-Transporter, 1260 nM.
`O=C(Cn1ccnc(NC2CCN(CCOc3ccccc3)CC2)c1=O)c1ccccc1` [Compound 4-6]: the IC50 at hα2A receptor was 39.8 nM; on hα2C receptor, 10 nM; on 5HT-Transporter, 5010 nM.
Consider `CN(C)CCCn1ccnc(NC2CCN(CCOc3ccccc3)CC2)c1=O` [Compound 1-4], for which the figures for the IC50 on hα2A receptor, on hα2C receptor and at 5HT-Transporter were 200 nM, 3.98 nM and above 10000 nM, respectively.
The matching figures for `O=C(Cn1ccnc(NC2CCN(CCOc3ccccc3)CC2)c1=O)N1CCC(Cc2ccccc2)CC1` [Compound 2-7]: 158 nM, 5.01 nM and 1000 nM.
For the compound `CC(=O)Cn1ccnc(NC2CCN(CCOc3ccccc3)CC2)c1=O` [Compound 5-4], the figures for the IC50 at hα2A receptor, on hα2C receptor and on 5HT-Transporter were 126 nM, 31.6 nM and above 10000 nM, respectively.
For the compound `CC(C)(C)C(=O)Cn1ccnc(NC2CCN(CCOc3ccccc3)CC2)c1=O` [Compound 5-6], the IC50 on hα2A receptor is 200 nM; on hα2C receptor, 10 nM.
On to `O=C(Cn1ccnc(NC2CCN(CCOc3ccccc3)CC2)c1=O)NCCc1ccccc1` [Compound 1-15], for which the IC50 on hα2A receptor is 251 nM; on hα2C receptor, 3.16 nM.
As for `O=c1c(NC2CCN(CCOc3ccccc3)CC2)nccn1-c1cccc(N2CCC(N3CCCC3)CC2)c1` [Compound 2-9], the IC50 at hα2A receptor was 7.94 nM; at hα2C receptor it was 1 nM; at 5HT-Transporter, 6310 nM.
As for `COc1ccc(-c2nnc(Cn3ccnc(N4CCN(CCOc5ccc(F)cc5)CC4)c3=O)o2)cc1` [Compound 12-4], the results for the IC50 at hα2A receptor, at hα2C receptor and on 5HT-Transporter were 158 nM, 158 nM and 794 nM, respectively.
`NCCCn1ccnc(NC2CCN(CCOc3ccccc3)CC2)c1=O` [Compound 1-1]: the results for the IC50 at hα2A receptor, at hα2C receptor and on 5HT-Transporter were 126 nM, 7.94 nM and above 10000 nM, respectively.
With `CCCCN(Cc1ccccc1)C(=O)Cn1ccnc(NC2CCN(CCOc3ccccc3)CC2)c1=O` [Compound 1-18], the IC50 is 126 nM at hα2A receptor, 6.31 nM at hα2C receptor and above 10000 nM on 5HT-Transporter.
The corresponding values for `O=C(Cn1ccnc(NC2CCN(CCOc3ccccc3)CC2)c1=O)N(CCN1CCCC1)Cc1ccc(F)cc1` [Compound 1-24] are 15.8 nM, 0.316 nM and 5010 nM.
With `O=c1c(N2CCN(CCOc3ccc(F)cc3)CC2)nccn1CCOCc1ccccc1` [Compound 9-3], the IC50 is 501 nM on hα2A receptor, 251 nM on hα2C receptor and 3980 nM at 5HT-Transporter.
`O=c1c(N2CCN(CCOc3ccc(F)cc3)CC2)nccn1Cc1ccc(-c2ccccc2)cc1` [Compound 11-6]: the IC50 on hα2A receptor was 316 nM; on hα2C receptor, 251 nM; on 5HT-Transporter, 1000 nM.
The matching figures for `O=C(Cn1ccnc(NC2CCN(CCOc3ccccc3)CC2)c1=O)Nc1ccccc1` [Compound 1-8]: 158 nM, 5.01 nM and 6310 nM.
For the compound `CN(C)C(=O)Cn1ccnc(NC2CCN(CCOc3ccccc3)CC2)c1=O` [Compound 1-5], the IC50 at hα2A receptor is 501 nM; on hα2C receptor, 39.8 nM; at 5HT-Transporter, above 10000 nM.
Turning to `C#CCN(C)C(=O)Cn1ccnc(NC2CCN(CCOc3ccccc3)CC2)c1=O` [Compound 1-7], the IC50 was 251 nM at hα2A receptor, 12.6 nM on hα2C receptor and above 10000 nM at 5HT-Transporter.
As for `O=c1c(NC2CCN(CCOc3ccccc3)CC2)nccn1CCc1ccccc1` [Compound 4-4], the IC50 at hα2A receptor is 158 nM; on hα2C receptor, 15.8 nM; at 5HT-Transporter it was 6310 nM.
As to `O=C(Cn1ccnc(NC2CCN(CCOc3ccccc3)CC2)c1=O)N1CCCCC1` [Compound 2-3], the IC50 is 251 nM on hα2A receptor, 7.94 nM at hα2C receptor and above 10000 nM on 5HT-Transporter.
As for `O=c1[nH]ccnc1N1CCN(CCOc2ccc(F)cc2)CC1` [Compound 13-1], the IC50 is 501 nM at hα2A receptor, 251 nM on hα2C receptor and above 10000 nM at 5HT-Transporter.
With `CC(C)(C)C(=O)Cn1ccnc(N2CCN(CCOc3ccc(F)cc3)CC2)c1=O` [Compound 13-4], the IC50 at hα2A receptor was 316 nM; at hα2C receptor, 200 nM; on 5HT-Transporter, above 10000 nM.
`CN(C(=O)Cn1ccnc(NC2CCN(CCOc3ccccc3)CC2)c1=O)c1ccccc1` [Compound 1-9]: the IC50 on hα2A receptor is 100 nM; on hα2C receptor, 3.16 nM; at 5HT-Transporter, 3980 nM.
The corresponding values for `C=CCn1ccnc(N2CCN(CCOc3ccc(F)cc3)CC2)c1=O` [Compound 13-5] are 501 nM, 501 nM and above 10000 nM.
Take `O=C(Cn1ccnc(NC2CCN(CCOc3ccccc3)CC2)c1=O)N1CCC(N2CCCC2)CC1` [Compound 2-8]: the figures for the IC50 at hα2A receptor, at hα2C receptor and at 5HT-Transporter were 79.4 nM, 2.51 nM and above 10000 nM, respectively.
For `O=c1c(N2CCN(CCOc3ccc(F)cc3)CC2)nccn1CC(c1ccccc1)c1ccccc1` [Compound 11-3], the figures for the IC50 at hα2A receptor, on hα2C receptor and on 5HT-Transporter were 251 nM, 316 nM and 7940 nM, respectively.
Regarding `CC(C)(C)OC(=O)NCc1ccc(Cn2ccnc(N3CCN(CCOc4ccc(F)cc4)CC3)c2=O)cc1` [Compound 7-3], the IC50 at hα2A receptor is 398 nM; at hα2C receptor, 251 nM; on 5HT-Transporter, 2000 nM.
As for `O=c1c(NC2CCN(CCOc3ccccc3)CC2)nccn1CCN1CCCCC1` [Compound 2-1], the IC50 was 100 nM on hα2A receptor and 2.51 nM at hα2C receptor.
For the compound `O=C(Cn1ccnc(NC2CCN(CCOc3ccccc3)CC2)c1=O)Nc1ccc(F)cc1` [Compound 1-10], the IC50 on hα2A receptor is 158 nM; on hα2C receptor it was 3.98 nM.
